Source: ChEMBL document CHEMBL1155707, “New lipopeptides from the Caribbean cyanobacterium Lyngbya majuscula” (J Nat Prod, 2001)

What was measured:
Type in all cases: functional, cell-based
P388 = assay: Cytotoxicity against mouse P388 cells
A549 = assay: Cytotoxicity against human A549 cells
HT-29 = assay: Cytotoxicity against human HT-29 cells
SK-MEL-28 = assay: Cytotoxicity against human SK-MEL-28 cells

Measured: IC50

C[C@@H](c1nccs1)N(C)C(=O)[C@H](C[C@H](C)C(Cl)(Cl)Cl)NC(=O)C[C@H](C)C(Cl)(Cl)Cl [PSEUDODYSIDENIN]
> 1 µg/mL: all assays above
